Assay results taken from patent US8501732B2, “Aminomethyl quinolone compounds” (Hoffmann-La Roche Inc., priority 2011, dated 2013).

What was measured:
[1] = tested on: phospho(Ser63)-c-jun in HK-2 cells; assay: Cell-Based Assay for JNK Inhibitors (in-cell ELISA, phospho(Ser63)-c-jun after TNFα); details: HK-2 cells (human proximal tubule cells), 60 minutes compound, then 10 ng/mL TNFα for 30 minutes
How it was run: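 HK-2 human proximal tubule cells were seeded at 40,000 cells/well, cultured 24 h, then serum-starved 16–24 h before TNFα stimulation with compound. Phospho(Ser63)-c-jun was quantified by in-cell ELISA on fixed, permeabilised cells, using a rabbit phospho-specific primary (overnight, 4 °C) and an HRP-linked anti-rabbit secondary. Absorbance was read at 450 nm.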

JNK1 = JNK1 (Homo sapiens (Human), UniProt P45983); assay: In Vitro JNK1 Assay (TR-FRET, phosphorylation of GST-c-Jun); type: biochemical; details: 0.2 nM active JNK1 kinase, 26.7 nM GST-c-Jun, 2 μM ATP, 30 min at room temperature
How it was run: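 IC50 derived from percent inhibition across 10 serially diluted concentrations, with TR-FRET detection of phospho-c-Jun via an anti-phospho-c-Jun antibody after EDTA stop. Substrate was GST-c-Jun 1-79, reacted 30 min at room temperature in pH 7.0 HEPES buffer with MgCl2, DTT, vanadate and BSA.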

JNK1, sequence (P45983 whole entry): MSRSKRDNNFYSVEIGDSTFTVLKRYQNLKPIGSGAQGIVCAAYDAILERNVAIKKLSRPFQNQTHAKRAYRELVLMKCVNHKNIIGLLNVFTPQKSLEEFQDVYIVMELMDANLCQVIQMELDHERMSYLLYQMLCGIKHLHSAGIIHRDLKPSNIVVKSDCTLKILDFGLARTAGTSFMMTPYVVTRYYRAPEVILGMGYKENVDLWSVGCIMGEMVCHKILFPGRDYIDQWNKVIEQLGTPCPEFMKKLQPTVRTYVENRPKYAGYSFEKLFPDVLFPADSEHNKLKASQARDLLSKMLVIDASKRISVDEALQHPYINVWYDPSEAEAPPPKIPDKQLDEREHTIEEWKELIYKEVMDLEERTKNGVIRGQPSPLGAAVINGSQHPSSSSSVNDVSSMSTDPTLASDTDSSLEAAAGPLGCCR

COC(=O)c1c(CNC(=O)c2ccc(N3CCOCC3)nc2)c(=O)c2ccc(C(F)(F)F)nc2n1-c1ccccc1 [Example I-152, 3-{[(6-Morpholin-4-yl-pyridine-3-carbonyl)-amino]-methyl}-4-oxo-1-phenyl-7-trifluoromethyl-1,4-dihydro-[1,8]naphthyridine-2-carboxylic acid methyl ester]
EC50 [1]: 7800 nM | IC50 (JNK1): 18 nM

COC(=O)c1c(CNC(=O)c2ccc(-c3ncc[nH]3)cc2)c(=O)c2ccc(C(F)(F)F)nc2n1-c1ccccc1 [Example I-153, 3-{[4-(1H-Imidazol-2-yl)-benzoylamino]-methyl}-4-oxo-1-phenyl-7-trifluoromethyl-1,4-dihydro-[1,8]naphthyridine-2-carboxylic acid methyl ester]
EC50 [1]: 4600 nM | IC50 (JNK1): 23 nM

COC(=O)c1c(CNC(=O)c2ccc(S(N)(=O)=O)cc2)c(=O)c2ccc(C(F)(F)F)nc2n1-c1ccccc1 [Example I-154, 4-Oxo-1-phenyl-3-[(4-sulfamoyl-benzoylamino)-methyl]-7-trifluoromethyl-1,4-dihydro-[1,8]naphthyridine-2-carboxylic acid methyl ester]
EC50 [1]: 9900 nM | IC50 (JNK1): 26 nM

COC(=O)c1c(CNC(=O)c2ccc(C(N)=O)cc2)c(=O)c2ccc(C(F)(F)F)nc2n1-c1ccccc1 [Example I-155, 3-[(4-Carbamoyl-benzoylamino)-methyl]-4-oxo-1-phenyl-7-trifluoromethyl-1,4-dihydro-[1,8]naphthyridine-2-carboxylic acid methyl ester]
EC50 [1]: 14000 nM | IC50 (JNK1): 27 nM

COC(=O)c1c(CNC(=O)c2ccc(-c3ccn[nH]3)cc2)c(=O)c2ccc(C(F)(F)F)nc2n1-c1ccccc1 [Example I-156, 4-Oxo-1-phenyl-3-{[4-(2H-pyrazol-3-yl)-benzoylamino]-methyl}-7-trifluoromethyl-1,4-dihydro-[1,8]naphthyridine-2-carboxylic acid methyl ester]
EC50 [1]: 8700 nM | IC50 (JNK1): 30 nM

COC(=O)c1c(CNC(=O)c2ccc(-c3nnn(C)n3)cc2)c(=O)c2ccc(C(F)(F)F)nc2n1-c1ccccc1 [Example I-157, 3-{[4-(2-Methyl-2H-tetrazol-5-yl)-benzoylamino]-methyl}-4-oxo-1-phenyl-7-trifluoromethyl-1,4-dihydro-[1,8]-naphthyridine-2-carboxylic acid methyl ester]
EC50 [1]: 16000 nM | IC50 (JNK1): 38 nM

COC(=O)c1c(CNC(=O)c2ccc3cc[nH]c3c2)c(=O)c2ccc(C(F)(F)F)nc2n1-c1ccccc1 [Example I-158, 3-{[(1H-Indole-6-carbonyl)-amino]-methyl}-4-oxo-1-phenyl-7-trifluoromethyl-1,4-dihydro-[1,8]naphthyridine-2-carboxylic acid methyl ester]
EC50 [1]: 10000 nM | IC50 (JNK1): 79 nM

COC(=O)c1c(CNC(=O)c2ccc(Cl)c(Cl)c2)c(=O)c2ccc(C(F)(F)F)nc2n1-c1ccccc1 [Example I-159, 3-[(3,4-Dichloro-benzoylamino)-methyl]-4-oxo-1-phenyl-7-trifluoromethyl-1,4-dihydro-[1,8]naphthyridine-2-carboxylic acid methyl ester]
EC50 [1]: 43000 nM | IC50 (JNK1): 170 nM

COC(=O)c1c(CNC(=O)c2cccc(Cl)c2)c(=O)c2ccc(OC)cc2n1-c1ccccc1 [Example I-160, 3-[(3-Chloro-benzoylamino)-methyl]-7-methoxy-4-oxo-1-phenyl-1,4-dihydro-quinoline-2-carboxylic acid methyl ester]
EC50 [1]: 22000 nM | IC50 (JNK1): 26 nM

COC(=O)c1c(CNC(=O)c2cccc(OC)c2)c(=O)c2ccc(OC)cc2n1-c1ccccc1 [Example I-161, 7-Methoxy-3-[(3-methoxy-benzoylamino)-methyl]-4-oxo-1-phenyl-1,4-dihydro-quinoline-2-carboxylic acid methyl ester]
EC50 [1]: 18000 nM | IC50 (JNK1): 32 nM

COC(=O)c1c(CNC(=O)c2ccc(F)c(F)c2)c(=O)c2ccc(OC)cc2n1-c1ccccc1 [Example I-162, 7-Methoxy-3-[(3,4-difluorobenzoylamino)-methyl]-4-oxo-1-phenyl-1,4-dihydro-quinoline-2-carboxylic acid methyl ester]
EC50 [1]: 38000 nM | IC50 (JNK1): 39 nM

COC(=O)c1c(CNC(=O)c2ccc(C(C)(C)C)cc2)c(=O)c2ccc(OC)cc2n1-c1ccccc1 [Example I-163, 3-[(4-tert-Butyl-benzoylamino)-methyl]-7-methoxy-4-oxo-1-phenyl-1,4-dihydro-quinoline-2-carboxylic acid methyl ester]
EC50 [1]: 14000 nM | IC50 (JNK1): 47 nM

COC(=O)c1c(CNC(=O)c2ccc(OC)cc2)c(=O)c2ccc(OC)cc2n1-c1ccccc1 [Example I-164, 3-[(4-methoxy-benzoylamino)-methyl]-7-methoxy-4-oxo-1-phenyl-1,4-dihydro-quinoline-2-carboxylic acid methyl ester]
EC50 [1]: 8900 nM | IC50 (JNK1): 54 nM

COC(=O)c1c(CNC(=O)c2cccnc2)c(=O)c2ccc(OC)cc2n1-c1ccccc1 [Example I-165, 7-Methoxy-4-oxo-1-phenyl-3-{[(pyridine-3-carbonyl)-amino]-methyl}-1,4-dihydro-quinoline-2-carboxylic acidmethyl ester]
EC50 [1]: 100000 nM | IC50 (JNK1): 65 nM

COC(=O)c1c(CNC(=O)c2ccc(F)cc2)c(=O)c2ccc(OC)cc2n1-c1ccccc1 [Example I-166, 3-[(4-Fluoro-benzoylamino)-methyl]-7-methoxy-4-oxo-1-phenyl-1,4-dihydro-quinoline-2-carboxylic acid methyl ester]
EC50 [1]: 100000 nM | IC50 (JNK1): 73 nM

COC(=O)c1c(CNC(=O)c2ccc(Cl)cc2)c(=O)c2ccc(OC)cc2n1-c1ccccc1 [Example I-168, 3-[(4-Chloro-benzoylamino)-methyl]-7-methoxy-4-oxo-1-phenyl-1,4-dihydro-quinoline-2-carboxylic acid methyl ester]
EC50 [1]: 32000 nM | IC50 (JNK1): 100 nM

COC(=O)c1c(CNC(=O)c2ccc(N3CCOCC3)nc2)c(=O)c2ccc(F)cc2n1-c1ccccc1 [Example I-169, 7-Fluoro-3-{[(6-morpholin-4-yl-pyridine-3-carbonyl)-amino]-methyl}-4-oxo-1-phenyl-1,4-dihydro-quinoline-2-carboxylic acid methyl ester]
EC50 [1]: 2400 nM | IC50 (JNK1): 4 nM

COC(=O)c1c(CNC(=O)c2ccc(Cl)nc2)c(=O)c2ccc(F)cc2n1-c1ccccc1 [Example I-170, 3-{[(6-Chloro-pyridine-3-carbonyl)-amino]-methyl}-7-fluoro-4-oxo-1-phenyl-1,4-dihydroquinoline-2-carboxylic acid methyl ester]
EC50 [1]: 44000 nM | IC50 (JNK1): 10 nM

COc1cc2ncnc(NCc3cn(-c4ccccc4)c4cc(Cl)ccc4c3=O)c2cc1OC [Example I-171, 7-Chloro-3-[(6,7-dimethoxy-quinazolin-4-ylamino)-methyl]-1-phenyl-1H-quinolin-4-one]
EC50 [1]: 88000 nM | IC50 (JNK1): 23 nM

O=c1c(CNc2ncnc3cc(F)ccc23)cn(-c2ccccc2)c2cc(Cl)ccc12 [Example I-172, 7-Chloro-3-[(7-fluoro-quinazolin-4-ylamino)-methyl]-1-phenyl-1H-quinolin-4-one]
EC50 [1]: 100000 nM | IC50 (JNK1): 79 nM

COC(=O)c1c(CNc2ncnc3ccccc23)c(=O)c2ccc(Cl)cc2n1-c1ccccc1 [Example I-208, 7-Chloro-4-oxo-1-phenyl-3-(quinazolin-4-ylaminomethyl)-1,4-dihydro-quinoline-2-carboxylic acid methyl ester]
EC50 [1]: 8400 nM | IC50 (JNK1): 60 nM
